Experimental data taken from patent publication US5912356A, “Antiviral nucleoside analogues containing a substituted benzimidazole base attached to a carbocyclic ring” (Glaxo Wellcome Inc., priority 1997, dated 1999).

Columns and labels:
[1] = system: Human cytomegalovirus (HCMV); test: Anti-HCMV plaque reduction assay in MRC5 cell monolayers; format: cell-based; details: Human betaherpesvirus 5, 50% inhibitory concentration, MRC5 cells (human embryonic lung)
Protocol: Human cytomegalovirus (HCMV) is assayed in monolayers of MRC5 cells (human embryonic lung) in multiwell trays. Activity of compounds is determined in the plaque reduction assay, in which a cell monolayer is infected with a suspension of HCMV. A range of concentrations of the compound to be tested (of known molarity) is then incorporated into the carboxymethyl cellulose overlay. Plaque numbers of each concentration are expressed as percentage of the control and a dose-response curve is drawn. From this curve the 50% inhibitory concentration (IC50) is estimated.

HBV = test: Anti-HBV assay: HBV DNA in supernatants of HBV-producing cells (HepG2 2.2.15, P5A), immunoaffinity capture, PCR and hybrid-capture detection; format: cell-based, hepatitis B virus (HBV); details: 50 percent decrease in HBV DNA, HepG2 2.2.15, P5A cell line, two values per compound, ganciclovir (control): average of 10 values
Protocol: Anti-HBV activity of compounds of formula (I) and (I-1) was determined with a high-capacity assay for assessing efficacy. Supernatants from growing HBV-producing cells (HepG2 2.2.15, P5A cell line) in 96-well plates are applied to microtiter plate wells which have been coated with a specific monoclonal antibody to HBV surface antigen (HBsAg). Virus particles present in the supernatants bind to the antibody and remain immobilized while other debris is removed by washing. These virus particles are then denatured to release HBV DNA strands which are subsequently amplified by the polymerase chain reaction and detected with a calorimetric hybrid-capture assay. Quantitation is achieved through fitting of a standard curve to dilutions of a cell supernatant with known HBV DNA content. By comparing HBV DNA levels of untreated control cell supernatants with supernatants containing a compound of formula (I) or (I-1), a measure of anti-HBV effectiveness is obtained.
b. Immunoaffinity Capture of HBV:
HBV producer cells, 2500 cells/well, were seeded in 96-well culture dishes in RPMI/10% fetal bovine serum/2 mM glutamine (RPMI/10/2:). Media were replenished on days 1, 3, 5, and 7 with dilutions of a compound of formula (1) or (I-1) in RPMI/10/2 to a final volume of 150 uL. Fifty uL of mouse monoclonal anti-HBsAG antibody (10 ug/mL in PBS) were added to each well of a round-bottom microtiter plate. After incubation overnight at 4° C., the solutions were aspirated and replaced with 100 uL of 0.1% BSA in PBS. Samples were incubated for 2 hours at 37° C. and washed three times with PB S/0/01% Tween-20 (PBS/T) using a Nunc Washer. Ten uL of 0.035% Tween 20 in PBS were then added to all wells by Pro/Pette. Cell supernatants (25 uL) containing extracellular virion DNA were transferred into wells by Pro/Pette; the final Tween concentration is 0.01%. Twenty-five uL HBV standard media dilutions in RPMI/10/2 were added to 2 rows of wells to serve as an internal standard curve for quantitation, and the plates were sealed and incubated at 4° C. overnight. Samples were washed 5 times with PBS/T and 2 times with PBS, aspirating the last wash. Next, 25 uL of 0.09N NaOH/0.01% NP40 were added to each well by Pro/Pette, and the sample wells were sealed and incubated at 37° C. for 60 minutes. Samples were then neutralized with 25 uL of 0.09N HCl/100 mM tris (pH 8.3).
c. Polymerase Chain Reaction (PCR):
Polymerase chain reaction (Saiki, R. K. et al., Science, 239 (4839) 487-91 (1988)) was carried out on 5 uL samples, using a Perkin Elmer PCR kit. PCR is performed in "MicroAmp tubes" in a final volume of 25 uL. Primers were chosen from conserved regions in the HBV genome, as determined by alignment of several sequences. One primer is biotinylated at the 5-prime end to facilitate hybrid-capture detection of the PCR products. All primers were purchased from Synthecell Corp., Rockville, Md. 20850.
d. Hybrid-Capture Detection of PCR Products:
PCR products were detected with horse radish peroxidase-labeled oligonucleotide probes (Synthecell Corp., Rockville, Md. 20850), which hybridize to biotinylated strands of denatured PCR products directly in streptavidin-coated microtiter plate wells, using essentially the method of Holodiniy, M. et al., BioTechniques, 12 (1) 37-39 (1992). Modifications included the use of […] PCR reaction volumes and sodium hydroxide denaturation instead of heat. Simultaneous binding of the biotin moiety to the plate-bound streptavidin during the hybridization serves to "capture" the hybrids. Unbound labeled probes were washed away before calorimetric determination of the bound (hybridized) horse radish peroxidase. Quantities of HBV DNA present in the original samples were calculated by comparison with standards. These values were then compared to those from untreated cell cultures to determine the extent of anti-HBV activity.
IC50 (the median inhibitory concentration) is the amount of compound which produces a 50 percent decrease in HBV DNA. […]

[2] = Hepatitis B virus, HepG2 2.2.15, approximate IC50

| Compound | IC50 [1] [nM] | IC50 (HBV; [2]) [nM] | IC50 (HBV; approximate IC50) [nM] |
| --- | --- | --- | --- |
| OC[C@@H]1C[C@H](n2c(Br)nc3cc(Cl)c(Cl)cc32)[C@@H](O)[C@H]1O (relative stereo) [Ex. 4, (±)-(1R*, 2S*, 3S*, 5S*)-5-(2-Bromo-5,6-dichloro-1H-benzimidazol-1yl)-3-(hydroxymethyl)-1,2-cyclopentanediol] | 1900 | – | – |
| OC[C@@H]1C[C@H](n2c(NC3CC3)nc3cc(Cl)c(Cl)cc32)[C@@H](O)[C@H]1O [Ex. 32, (1R, 2S, 3S, 5S)-5-[5,6-Dichloro-2-(cyclopropylamino)-1H-benzimidazol-1-yl]-3-(hydroxymethyl)-1,2-cyclopentanediol] | – | 1300 | 790 |
| CC(C)Nc1nc2cc(Cl)c(Cl)cc2n1[C@H]1C[C@@H](CO)[C@H](O)[C@@H]1O [Ex. 33, (1R, 2S, 3S, 5S)-5-[5,6-Dichloro-2-(isopropylamino)-1H-benzimidazol-1-yl]-3-(hydroxymethyl)-1,2-cyclopentanediol] | – | 440 | 500 |
| CC(C)(C)Nc1nc2cc(Cl)c(Cl)cc2n1[C@H]1C[C@@H](CO)[C@H](O)[C@@H]1O [Ex. 40, (1R, 2S, 3S, 5S)-5-[2-(tert-Butylamino)-5,6-dichloro-1H-benzimidazol-1-yl]-3-(hydroxymethyl)-1,2-cyclopentanediol] | – | – | 1400 |
| Nc1nc(O)c2ncn(COC(CO)CO)c2n1 [ganciclovir, reference compound] | – | 1100 | – |
